Test results taken from EPA's aquatic toxicity sets.

System: Pimephales promelas
Assay: 96 h LC50 (-log10 mol/L); higher = more toxic

| Structure (SMILES) | 96 h LC50 (-log10 mol/L) |
| --- | --- |
| O=C(Oc1ccccc1)c1ccccc1C(=O)Oc1ccccc1 | 6.6 |
| C1C2CC3CC1CC(C2)C3 | 5.68 |
| CCOC(=O)[C@H](C)N(C(=O)c1ccccc1)c1ccc(Cl)c(Cl)c1 | 5.68 |
| O=C(CCl)c1ccc(Cl)cc1 | 4.21 |
| COc1cc(Cl)c(Cl)cc1O | 4.63 |
| CC(N)CN (configuration not stated) | 1.82 |
| COc1ccc(O)cc1 | 3.11 |
| COC(=O)c1ccc(C(=O)OC)c(N)c1 | 4.37 |
| C=C(CCl)CCl | 5.82 |
| C=CCCCCCCC=C | 5.68 |
| O=[N+]([O-])c1ccc(O)cc1C(F)(F)F | 4.51 |
| Nc1ccc(Br)cn1 | 2.99 |
| O=S(c1ccccc1)c1ccccc1 | 3.37 |
| C#CCN(CC#C)CC#C | 2.65 |
| COC(=O)C1C(C(=O)OC)C2(Cl)C(Cl)=C(Cl)C1(Cl)C2(Cl)Cl (configuration not stated) | 5.38 |
| CCCCCCCCOC(=O)C(C)O (configuration not stated) | 3.93 |
| Cc1ccc([N+](=O)[O-])c(N)c1 | 3.79 |
| CCCCN(CC)c1c([N+](=O)[O-])cc(C(F)(F)F)cc1[N+](=O)[O-] | 6.53 |
| O=C(O)[C@@H]1[C@H](C(=O)O)[C@H]2CC[C@@H]1O2 | 4.08 |
| CN(C)C(=O)N[C@@H]1C[C@@H]2C[C@H]1[C@@H]1CCC[C@H]21 | 3.84 |
| O=C(O)CCCOc1ccc(Cl)cc1Cl | 4.14 |
| Cc1cc(C)c([N+](=O)[O-])cc1[N+](=O)[O-] | 4.39 |
| Oc1ccccc1Cl | 4.02 |
| Cc1ncc[nH]1 | 2.46 |

| Structure (SMILES) | 96 h LC50 (-log10 mol/L) |
| --- | --- |
| Cc1c([N+](=O)[O-])ccc(N)c1[N+](=O)[O-] | 4.25 |
| CCOP(=S)(OCC)Oc1nc(Cl)c(Cl)cc1Cl | 6.36 |
| CCN(CC)c1c([N+](=O)[O-])cc(C(F)(F)F)c(N)c1[N+](=O)[O-] | 5.39 |
| CCCCOCC(C)OC(=O)C(C)Oc1cc(Cl)c(Cl)cc1Cl (configuration not stated) | 4.73 |
| Clc1cc(Cl)cc(C2(CC(Cl)(Cl)Cl)CO2)c1 (configuration not stated) | 5.38 |
| Cc1cc2cccc(C)c2cc1C | 4.42 |
| COC(=O)c1ccc(O)cc1O | 3.6 |
| C#CCC(C)O (configuration not stated) | 3.38 |
| CCNS(=O)(=O)C(F)(F)C(F)(F)C(F)(F)C(F)(F)C(F)(F)C(F)(F)C(F)(F)C(F)(F)F | 6.45 |
| O=[N+]([O-])C(CO)(CO)CO | 2.73 |
| C1CCOC1 | 1.52 |
| NNC(N)=S | 3.64 |
| C=C(C)C(=O)OCCOCC | 3.76 |
| CN(C)C(=O)Nc1ccc(Cl)c(Cl)c1 | 4.21 |
| OC(C(F)(F)F)C(F)(F)F | 2.84 |
| O[C@@H]1CCCC[C@H]1c1ccccc1 | 3.6 |
| CCCCC(=O)CCCC | 3.66 |
| ON=C1CCCCC1 | 2.74 |
| COCOC | 1.04 |
| Oc1c(Cl)cc(Cl)c(Cl)c1Cc1c(O)c(Cl)cc(Cl)c1Cl | 7.29 |
| COc1cccc(OC)c1C | 3.88 |
| ClCCCCCCl | 3.75 |
| COP(O)(=S)OC | 3.52 |
| CCCCCCCCCCCCCN | 6.48 |

| Structure (SMILES) | 96 h LC50 (-log10 mol/L) |
| --- | --- |
| CCOC(=O)/C=C\C(=O)OCC | 3.98 |
| CC1(C)[C@@H]2CC[C@@]1(C)C(=O)C2 | 3.14 |
| Cc1nnc(N)nc1C | 2.12 |
| CC(C)(C)SC(C)(C)C | 3.7 |
| CC12CCC(C(Br)C1=O)C2(C)C (configuration not stated) | 3.53 |
| CC1=CCC(=C(C)C)CC1 | 5.05 |
| CC(C)C(C(=O)OC(C#N)c1cccc(Oc2ccccc2)c1)c1ccc(Cl)cc1 (configuration not stated) | 8.14 |
| CCC(C)c1cccc(OC(=O)N(C)Sc2ccccc2)c1 (configuration not stated) | 6.91 |
| CC(C)=CCC/C(C)=C/CO | 4.59 |
| ClCCCCCl | 3.39 |
| CCCCOc1ccccc1 | 4.42 |
| c1ccc(SSc2ccccc2)cc1 | 6.3 |
| CCC1(CCC(C)C)C(=O)NC(=O)NC1=O | 3.42 |
| O=[N+]([O-])c1ccc(/C=C/c2cccc(CO)n2)o1 | 5.48 |
| CCOP(=S)(Oc1ccc([N+](=O)[O-])cc1)c1ccccc1 (configuration not stated) | 6.21 |
| CCNc1nc(NC(C)(C)C)nc(OC)n1 | 3.66 |
| OCCOc1ccccc1 | 2.6 |
| O=CN(c1ccccc1)c1ccccc1 | 3.81 |
| COP(=S)(OC)Oc1ccc(Sc2ccc(OP(=S)(OC)OC)cc2)cc1 | 4.14 |
| Cc1ccc([N+](=O)[O-])c(N)c1[N+](=O)[O-] | 4.21 |
| COc1ccc(C(C)=O)c(OC)c1OC | 3.02 |
| CCOP(=O)(OCC)OP(=O)(OCC)OCC | 5.35 |
| Cc1c([N+](=O)[O-])ccc([N+](=O)[O-])c1N | 5.37 |
| CCCSP(=O)(OCC)Oc1ccc(Br)cc1Cl (configuration not stated) | 6.64 |

| Structure (SMILES) | 96 h LC50 (-log10 mol/L) |
| --- | --- |
| O=C(Nc1cccc(Cl)c1)c1cccc([N+](=O)[O-])c1O | 6.08 |
| O=C1C2CC=CCC2C(=O)N1SC(Cl)(Cl)Cl (configuration not stated) | 6.35 |
| Cc1ccccc1F | 3.75 |
| O=Cc1cccc(Oc2ccc(Cl)c(Cl)c2)c1 | 5.95 |
| C1OCOCO1 | 1.18 |
| c1ccc2c(c1)CCO2 | 3.17 |
| CCCCCCCCCCCCN | 6.25 |
| CC(C)C(C(=O)OC(C#N)c1cccc(Oc2ccccc2)c1)c1ccc(OC(F)F)cc1 (configuration not stated) | 8.98 |
| CCNc1cccc(C)c1 | 3.44 |
| O[C@H]1C[C@@H]2CC[C@H]1C2 | 2.69 |
| C#CC(C)(O)CCC(C)C (configuration not stated) | 3.46 |
| ClC1=C(Cl)[C@]2(Cl)[C@H]3[C@H]([C@@H]4C=C[C@H]3C4)[C@@]1(Cl)C2(Cl)Cl | 7.09 |
| C=C1[C@H]2CC[C@@H]3[C@H]2C(C)(C)CCC[C@]13C | 4.3 |
| CC(=O)C(C)CN(C)C (configuration not stated) | 4.18 |
| CCOC(=O)C(C)N(C(=O)c1ccccc1)c1ccc(Cl)c(Cl)c1 (configuration not stated) | 5.81 |
| Brc1ccccc1 | 4.45 |
| CC1(C)NC(=O)NC1=O | 0.89 |
| O=C(Oc1ccccc1)c1ccccc1O | 5.28 |
| CCCSSCCC | 4.76 |
| Cc1c(N)cccc1[N+](=O)[O-] | 3.48 |
| Brc1ccccc1Br | 4.76 |
| OCCOCCO | 0.15 |
| c1ccc(-c2ccc(-c3ccccc3)o2)cc1 | 6.64 |
| CCOC(CN(C)CC(OCC)OCC)OCC | 2.62 |

| Structure (SMILES) | 96 h LC50 (-log10 mol/L) |
| --- | --- |
| COc1ccccc1[N+](=O)[O-] | 2.9 |
| O=C1c2ccccc2C(=O)N1SC(Cl)(Cl)Cl | 6.21 |
| CCCCCC(C)=O | 2.94 |
| COP(=O)(O)OC | 3.85 |
| c1ccc2c(c1)CCC2 | 3.93 |
| CC(C)(C)CN | 2.26 |
| COCCCNCc1cc(OC)c(OC)c(OC)c1 | 3.3 |
| CC(O)(c1ccc(Cl)cc1)c1ccc(Cl)cc1 | 5.25 |
| O=CC=O | 2.43 |
| N#Cc1ccccc1C(F)(F)F | 3.61 |
| O=c1cccc(Cl)[nH]1 | 2.78 |
| CCCCN(C=O)CCCC | 3.25 |
| CC(C)CCCCCOC(=O)C(C)Oc1cc(Cl)c(Cl)cc1Cl (configuration not stated) | 4.24 |
| CCN(CCO)c1cccc(C)c1 | 3.53 |
| BrCC1CCCCO1 (configuration not stated) | 2.94 |
| N#Cc1c(Cl)cccc1Cl | 4.42 |
| CCCSCCC | 3.74 |
| Cc1c([N+](=O)[O-])cc(N)cc1[N+](=O)[O-] | 4.46 |
| ClC1(Cl)C2(Cl)C3(Cl)C4(Cl)C(Cl)(Cl)C5(Cl)C3(Cl)C1(Cl)C5(Cl)C24Cl (configuration not stated) | 3.62 |
| Nc1ccc(S(=O)(=O)O)cc1 | 3.24 |
| C#CCCO | 3.29 |
| ClCc1ccc(CCl)cc1 | 6.65 |
| CCNCCO | 1.78 |
| CCCCCCCCCCc1ccc(N)cc1 | 6.57 |

| Structure (SMILES) | 96 h LC50 (-log10 mol/L) |
| --- | --- |
| CCOP(=S)(OCC)Oc1ccc(S(C)=O)cc1 (configuration not stated) | 3.85 |
| C=C(C)C1CC=C(C)CC1 (configuration not stated) | 2.15 |
| O=C(Cl)c1ccccc1 | 3.61 |
| CC(C)(O)C(Cl)(Cl)Cl | 3.12 |
| OCc1ccoc1 | 2.29 |
| Oc1cc(Cl)c(Cl)cc1O | 5.3 |
| CC(C)SSC(C)C | 4.26 |
| CCOP(=S)(OCC)SCCSCC | 4.85 |
| Cc1c(Cl)cccc1NC=O | 3.56 |
| CC(C)(C)c1ccc(Oc2cccc(C=O)c2)cc1 | 5.84 |
| C#CC1(O)CCCCC1 | 2.69 |
| CCCCCCCCS(=O)C(C)Cc1ccc2c(c1)OCO2 (configuration not stated) | 5.64 |
| BrC(Br)c1ccccc1C(Br)Br | 5.99 |
| O=Cc1cccc(C(F)(F)F)c1 | 5.28 |
| O=Cc1cc([N+](=O)[O-])ccc1Cl | 4.67 |
| CCOP(=S)(OCC)SCSP(=S)(OCC)OCC | 5.73 |
| CCCCCCCC/C=C\CCCCCCCC(=O)O | 3.14 |
| CC1=CC[C@@H]2C[C@H]1C2(C)C | 5.69 |
| CCSCCSCC | 3.4 |
| NC(=O)c1cccc(Br)c1 | 3.33 |
| O=Cc1ccco1 | 3.57 |
| CC1(C)CC(=O)CC(=O)C1 | 1.09 |
